From ChEMBL document CHEMBL1201862, “PubChem BioAssay data set” (2004)
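Growth conditions: 96-well plates. Treatment: test compound, 48 hours, 5 concentrations. Analysis: linear interpolation between bracketing concentrations; unreached endpoints set to highest concentration. Here, GI50 denotes the concentration required for 50% inhibition of growth.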 The source made the active and inactive calls. Cut-off read from the data, not from the text of the source: active = GI50 up to about 1.1 µM and inactive = higher.

Tests used:
Test in all cases: DTP human tumour cell line panel, 48 h
[1] = test system: M14
[2] = test system: U-251
[3] = test system: 786-0
[4] = test system: ACHN
[5] = test system: MOLT-4
[6] = test system: K562
[7] = test system: SN12C
[8] = test system: NCI-H460
[9] = test system: MCF7
[10] = test system: MDA-MB-231
[11] = test system: CAKI-1
[12] = test system: SW-620
[13] = test system: HCT-116
[14] = test system: UO-31
[15] = test system: HOP-92
[16] = test system: EKVX
[17] = test system: SK-MEL-5
[18] = test system: SNB-75
[19] = test system: HCC 2998
[20] = test system: Malme-3M

Structure (SMILES)	GI50 [1]	GI50 [2]	GI50 [3]	GI50 [4]	GI50 [5]	GI50 [6]	GI50 [7]	GI50 [8]	GI50 [9]	GI50 [10]	GI50 [11]	GI50 [12]	GI50 [13]	GI50 [14]	GI50 [15]	GI50 [16]	GI50 [17]	GI50 [18]	GI50 [19]	GI50 [20]
O=C(O)c1ccc([N+](=O)[O-])c(P(=O)(O)O)c1	> 100 µM (inactive)	> 100 µM (inactive)	> 100 µM (inactive)	> 100 µM (inactive)	> 100 µM (inactive)	> 100 µM (inactive)	> 100 µM (inactive)	> 100 µM (inactive)	> 100 µM (inactive)	> 100 µM (inactive)	> 100 µM (inactive)	> 100 µM (inactive)	> 100 µM (inactive)	> 100 µM (inactive)	> 100 µM (inactive)	> 100 µM (inactive)	> 100 µM (inactive)	–	–	–
O=c1[nH]c(N/N=C\C(O)C(O)C(O)CO)nc2ccccc12 (stereo not given)	> 100 µM (inactive)	> 100 µM (inactive)	> 100 µM (inactive)	> 100 µM (inactive)	> 100 µM (inactive)	> 100 µM (inactive)	> 100 µM (inactive)	> 100 µM (inactive)	> 100 µM (inactive)	–	> 100 µM (inactive)	> 100 µM (inactive)	> 100 µM (inactive)	> 100 µM (inactive)	> 100 µM (inactive)	> 100 µM (inactive)	> 100 µM (inactive)	> 100 µM (inactive)	–	–
COc1cc2c(cc1OC)-c1c(oc3cc(OC4OC(CO)C(O)C(O)C4O)c(OC)cc3c1=O)C(O)O2 (stereo not given)	> 100 µM (inactive)	> 100 µM (inactive)	> 100 µM (inactive)	> 100 µM (inactive)	–	> 100 µM (inactive)	> 100 µM (inactive)	> 100 µM (inactive)	–	> 100 µM (inactive)	> 100 µM (inactive)	> 100 µM (inactive)	> 100 µM (inactive)	> 100 µM (inactive)	> 100 µM (inactive)	> 100 µM (inactive)	> 100 µM (inactive)	> 100 µM (inactive)	> 100 µM (inactive)	> 100 µM (inactive)
O=C1/C(=C/c2cccs2)NC(=S)N1CN1CCCCC1	61.7 µM (inactive)	85.9 µM (inactive)	42.3 µM (inactive)	42.6 µM (inactive)	55.5 µM (inactive)	52.1 µM (inactive)	97.5 µM (inactive)	–	28.2 µM (inactive)	> 100 µM (inactive)	–	30.3 µM (inactive)	33 µM (inactive)	80.2 µM (inactive)	77.1 µM (inactive)	55 µM (inactive)	35.3 µM (inactive)	> 100 µM (inactive)	–	> 100 µM (inactive)
COC(=O)C1(Cc2ccccc2)Cc2cc3c(cc2C1O)CCC3 (stereo not given)	–	–	13.6 µM (inactive)	17.1 µM (inactive)	17.5 µM (inactive)	19.7 µM (inactive)	17.7 µM (inactive)	30.1 µM (inactive)	–	18.3 µM (inactive)	11.6 µM (inactive)	13.2 µM (inactive)	17.9 µM (inactive)	> 10 µM (inactive)	16 µM (inactive)	22.9 µM (inactive)	15.9 µM (inactive)	34.8 µM (inactive)	24.9 µM (inactive)	14 µM (inactive)
Cc1cccc2c1C/C(=C\c1cccc(C)c1C(=O)O)C2=O	> 100 µM (inactive)	> 100 µM (inactive)	> 100 µM (inactive)	> 100 µM (inactive)	61.1 µM (inactive)	> 100 µM (inactive)	> 100 µM (inactive)	> 100 µM (inactive)	> 100 µM (inactive)	–	> 100 µM (inactive)	> 100 µM (inactive)	> 100 µM (inactive)	> 100 µM (inactive)	> 100 µM (inactive)	> 100 µM (inactive)	71.6 µM (inactive)	> 100 µM (inactive)	> 100 µM (inactive)	> 100 µM (inactive)
c1ccc(Cc2cc(-c3ccccc3)[nH]n2)cc1	28.5 µM (inactive)	13.2 µM (inactive)	17 µM (inactive)	15.8 µM (inactive)	10.4 µM (inactive)	13 µM (inactive)	13.5 µM (inactive)	17 µM (inactive)	19.8 µM (inactive)	11.5 µM (inactive)	11.5 µM (inactive)	14.6 µM (inactive)	25.9 µM (inactive)	21.8 µM (inactive)	–	10.6 µM (inactive)	–	< 0.01 µM (active)	–	–
O=C(c1ccccc1)N(C(=O)c1ccccc1)c1nc(SCc2ccccc2)ns1	34.4 µM (inactive)	19.2 µM (inactive)	26.7 µM (inactive)	41.6 µM (inactive)	25.4 µM (inactive)	29.1 µM (inactive)	25.2 µM (inactive)	21.1 µM (inactive)	30.5 µM (inactive)	–	38.2 µM (inactive)	37.2 µM (inactive)	23.8 µM (inactive)	6.11 µM (inactive)	26.7 µM (inactive)	25.7 µM (inactive)	16.2 µM (inactive)	22.6 µM (inactive)	22.1 µM (inactive)	22.7 µM (inactive)
O=c1/c(=C/c2ccccn2)sc2nc3cc4c(cc3n12)OCCO4	> 100 µM (inactive)	> 100 µM (inactive)	> 100 µM (inactive)	> 100 µM (inactive)	> 100 µM (inactive)	> 100 µM (inactive)	> 100 µM (inactive)	> 100 µM (inactive)	–	> 100 µM (inactive)	> 100 µM (inactive)	> 100 µM (inactive)	> 100 µM (inactive)	> 100 µM (inactive)	> 100 µM (inactive)	–	> 100 µM (inactive)	91.8 µM (inactive)	> 100 µM (inactive)	> 100 µM (inactive)
CC(O)(/C=C/c1ccccc1)P(=O)(O)c1ccccc1 (stereo not given)	> 100 µM (inactive)	> 100 µM (inactive)	> 100 µM (inactive)	> 100 µM (inactive)	–	> 100 µM (inactive)	> 100 µM (inactive)	> 100 µM (inactive)	> 100 µM (inactive)	–	> 100 µM (inactive)	> 100 µM (inactive)	> 100 µM (inactive)	–	> 100 µM (inactive)	> 100 µM (inactive)	> 100 µM (inactive)	37.9 µM (inactive)	47.2 µM (inactive)	> 100 µM (inactive)
COC(=O)C(=O)CC(=O)CCn1ncc(Cl)c(Cl)c1=O	14.7 µM (inactive)	9.23 µM (inactive)	21.7 µM (inactive)	20.1 µM (inactive)	6.19 µM (inactive)	3.56 µM (inactive)	16.9 µM (inactive)	19.7 µM (inactive)	–	–	5.78 µM (inactive)	8.36 µM (inactive)	15.1 µM (inactive)	18.1 µM (inactive)	15.7 µM (inactive)	19.5 µM (inactive)	16.3 µM (inactive)	20.8 µM (inactive)	7.45 µM (inactive)	18.7 µM (inactive)
COc1ccc(-c2nc3ncccn3c2-c2ccc([S+](C)[O-])cc2)cc1 (stereo not given)	> 100 µM (inactive)	> 100 µM (inactive)	> 100 µM (inactive)	> 100 µM (inactive)	> 100 µM (inactive)	> 100 µM (inactive)	> 100 µM (inactive)	> 100 µM (inactive)	28.3 µM (inactive)	> 100 µM (inactive)	14.2 µM (inactive)	> 100 µM (inactive)	> 100 µM (inactive)	> 100 µM (inactive)	61.2 µM (inactive)	–	36.8 µM (inactive)	> 100 µM (inactive)	–	–
